Data from patent US9056104B2, “Dynamic inhibitors of heat shock protein 90” (THE UNIVERSITY OF KANSAS, priority 2011, dated 2015).
Where two headings read alike, the source gives them in different places.

What was measured:
[1] = test system: MCF-7 (estrogen receptor positive breast cancer cells); assay: Anti-proliferative activity against MCF-7 cells; format: cell-based; settings: mean ± SD
Experimental: (§1) Once synthesized, the library of coumermycin A1 analogs containing the olefinic and saturated linkers, were evaluated for anti-proliferative activity against SKBr3 (estrogen receptor negative, Her2 over-expressing breast cancer cells), MCF-7 (estrogen receptor positive breast cancer cells), A549 (human lung adenocarcinoma epithelial), HT29 (Human colon adenocarcinoma grade II), and PC3mm2 (androgen receptor insensitive prostate cancer) cell lines. […] As shown, X is at the 6 position and Y is at the 8 position.

[2] = test system: PC3mm2 (androgen receptor insensitive prostate cancer); assay: Anti-proliferative activity against PC3mm2 cells; format: cell-based
Experimental: as §1, with “lines. The activities produced provide insight into the optimal distance between binding sites and provide rationale for subsequent analog design.” for “lines.”

[3] = test system: A549 (human lung adenocarcinoma epithelial); assay: Anti-proliferative activity against A549 cells; format: cell-based
Experimental: as §1, with “lines. The activities produced provide insight into the optimal distance between binding sites and provide rationale for subsequent analog design.” for “lines.”

[4] = test system: SKBr3 (estrogen receptor negative, Her2 over-expressing breast cancer cells); assay: Anti-proliferative activity against SKBr3 cells; format: cell-based; settings: mean ± SD
Experimental: as §1

[5] = test system: HT29 (Human colon adenocarcinoma grade II); assay: Anti-proliferative activity against HT29 cells; format: cell-based
Experimental: as §1, with “lines. The activities produced provide insight into the optimal distance between binding sites and provide rationale for subsequent analog design.” for “lines.”

[6] = test system: cancer cells; settings: previously found, background; read-out: IC50 against cancer cells (anti-proliferative activity); cited from earlier work
[7] = test system: HSP90-dependent client proteins (Her-2, Raf, Akt); assay: Western blot analyses of HSP90 client protein degradation in MCF-7 breast cancer cells; format: cell-based; settings: MCF-7 lysates, 24 hour treatment, 5x and 1/2 of antiproliferative IC50; actin control
Experimental: Since actin is not dependent on HSP90 for its maturation, actin levels should remain constant after treatment with an HSP90 inhibitor and is therefore used as a control. […] L represents a concentration ½ of the anti-proliferative IC50 value while H represents a concentration 5 times greater than the anti-proliferative IC50 value. GDA (500 nM) represents a positive control, while DMSO (0), vehicle, serves as the negative control. […]

[8] = test system: SKBr3, MCF-7, A549, HT29 and PC3mm2 cell lines; assay: Anti-proliferative activity, cell lines not specified; format: cell-based; settings: versus Compounds 65-70
Experimental: as §1, with “lines. The activities produced provide insight into the optimal distance between binding sites and provide rationale for subsequent analog design.” for “lines.”

[9] = Table 3, read-out: Anti-Proliferation Activities of Saturated Linker Dimers, MCF-7
[10] = Table 3, read-out: Anti-Proliferation Activities of Saturated Linker Dimers, PC3mm2
[11] = Table 3, read-out: Anti-Proliferation Activities of Saturated Linker Dimers, A549
[12] = Table 3, read-out: Anti-Proliferation Activities of Saturated Linker Dimers, SKBr3
[13] = Table 3, read-out: Anti-Proliferation Activities of Saturated Linker Dimers, HT29
[14] = Table 1, at least two experiments in triplicate, read-out: Anti-Proliferation Activities of Noviosylated Olefin Dimers, MCF-7
[15] = Table 1, at least two experiments in triplicate, read-out: Anti-Proliferation Activities of Noviosylated Olefin Dimers, SKBr3
[16] = Table 2, read-out: Anti-Proliferation Activities of non-Noviosylated Olefin Dimers, MCF7
[17] = Table 2, read-out: Anti-Proliferation Activities of non-Noviosylated Olefin Dimers, PC3mm2
[18] = Table 2, read-out: Anti-Proliferation Activities of non-Noviosylated Olefin Dimers, A549
[19] = Table 2, read-out: Anti-Proliferation Activities of non-Noviosylated Olefin Dimers, SKBr3

Row | IC50 [1, 14] | IC50 [4, 15] | IC50 [1, 16] | IC50 [2, 17] | IC50 [3, 18] | IC50 [4, 19] | Compound | other results
1 | > 100 µM | 52 ± 7.8 µM |  |  |  |  | COc1c(OC2OC(C)(C)C(OC)C(O)C2O)ccc2cc(NC(=O)CC=CCC(=O)Nc3cc4ccc(OC5OC(C)(C)C(OC)C(O)C5O)c(OC)c4oc3=O)c(=O)oc12 (stereo not drawn) [Compound 17] | 
2 | 168 ± 9.7 µM | 106 ± 13.2 µM |  |  |  |  | COc1cc2cc(NC(=O)CCC=CCCC(=O)Nc3cc4cc(OC)c(OC5OC(C)(C)C(OC)C(O)C5O)c(C)c4oc3=O)c(=O)oc2c(C)c1OC1OC(C)(C)C(OC)C(O)C1O (stereo not drawn) [Compound 18] | 
3 | 3.9 ± 0.7 µM | 1.5 ± 0.1 µM |  |  |  |  | COC1C(O)C(O)C(Oc2ccc3cc(NC(=O)CCC=CCCC(=O)Nc4cc5ccc(OC6OC(C)(C)C(OC)C(O)C6O)c(C)c5oc4=O)c(=O)oc3c2C)OC1(C)C (stereo not drawn) [Compound 21] | 

Further lines, the molecule ahead of its results:

Row | Compound | IC50 [1, 14] | IC50 [4, 15] | IC50 [1, 16] | IC50 [2, 17] | IC50 [3, 18] | IC50 [4, 19] | other results
4 | Cc1c(OC2CCN(C)CC2)ccc2cc(NC(=O)CCCCCCC(=O)Nc3cc4ccc(OC5CCN(C)CC5)c(C)c4oc3=O)c(=O)oc12 [Compound 43] |  |  |  |  |  |  | IC50 [1, 9]: 2.82 ± 0.3 µM; IC50 [2, 10]: 13.8 µM; IC50 [3, 11]: 30.4 µM; IC50 [4, 12]: 1.19 ± 0.3 µM; IC50 [5, 13]: 26.3 µM
5 | CO[C@@H]1[C@@H](OC(N)=O)[C@@H](O)[C@H](Oc2ccc3c(O)c(NC(=O)c4ccc(O)c(CC=C(C)C)c4)c(=O)oc3c2C)OC1(C)C [novobiocin] |  |  |  |  |  |  | IC50 [6]: ~700 µM
6 | COC1C(O)C(O)C(Oc2ccc3cc(NC(=O)CC=CCC(=O)Nc4cc5ccc(OC6OC(C)(C)C(OC)C(O)C6O)c(C)c5oc4=O)c(=O)oc3c2C)OC1(C)C (stereo not drawn) [Compound 20] | 53.1 ± 7.1 µM | > 100 µM |  |  |  |  | 
7 | COc1cc2cc(NC(=O)CC/C=C/CCC(=O)Nc3cc4cc(OC)c(OC5CCN(C)CC5)c(C)c4oc3=O)c(=O)oc2c(C)c1OC1CCN(C)CC1 [Compound 30] |  |  | 1.31 ± 0.1 µM | 4.86 µM | 13.4 µM | 1.1 ± 0.13 µM | 
8 | COc1c(OC2CCN(C)CC2)ccc2cc(NC(=O)CC/C=C/CCC(=O)Nc3cc4ccc(OC5CCN(C)CC5)c(OC)c4oc3=O)c(=O)oc12 [Compound 31] |  |  | 1.12 ± 0.03 µM | 0.06 µM | 1.22 µM | 2.22 ± 0.5 µM | degradation of HSP90 client proteins (Her-2, Raf, Akt), Western blot [7]: no activity against HSP90 client proteins
9 | Cc1c(OC2CCN(C)CC2)ccc2cc(NC(=O)CCCCCCCCC(=O)Nc3cc4ccc(OC5CCN(C)CC5)c(C)c4oc3=O)c(=O)oc12 [Compound 44] |  |  |  |  |  |  | IC50 [1, 9]: 3.68 ± 0.4 µM; IC50 [2, 10]: 10.2 µM; IC50 [3, 11]: 13.2 µM; IC50 [4, 12]: 2.84 ± 0.1 µM; IC50 [5, 13]: 3.9 µM
10 | COc1c(OC2CCN(C)CC2)ccc2cc(NC(=O)CCC/C=C/CCCC(=O)Nc3cc4ccc(OC5CCN(C)CC5)c(OC)c4oc3=O)c(=O)oc12 [Compound 34] |  |  | 0.88 ± 0.11 µM | 0.05 µM | 1.21 µM | 0.37 ± 0.05 µM | 
11 | Cc1c(OC2CCN(C)CC2)ccc2cc(NC(=O)C/C=C/CC(=O)Nc3cc4ccc(OC5CCN(C)CC5)c(C)c4oc3=O)c(=O)oc12 [Compound 26] |  |  | 0.29 ± 0.01 µM | 7.51 µM | 8.84 µM | 0.18 ± 0.03 µM | IC50 ([5]; Table 2, read-out: Anti-Proliferation Activities of non-Noviosylated Olefin Dimers, HT29): 7.1 µM
12 | COc1cc(C(=O)Nc2cc3ccc(OC4OC(C)(C)C(OC)C(O)C4O)c(C)c3oc2=O)cc(-c2cc(C(=O)Nc3cc4ccc(OC5OC(C)(C)C(OC)C(O)C5O)c(C)c4oc3=O)ccc2OC)c1 (stereo not drawn) [Compound 67] |  |  |  |  |  |  | IC50 ([1]; Table 4, read-out: Anti-Proliferation Activities of Biaryl Dimers, MCF-7): 38 ± 1.5 µM; IC50 ([4]; Table 4, read-out: Anti-Proliferation Activities of Biaryl Dimers, SKBr3): 28.5 ± 4.4 µM
13 | COc1ccc(C(=O)Nc2cc3ccc(OC(C)=O)c(C)c3oc2=O)cc1-c1cc(C(=O)Nc2cc3ccc(OC(C)=O)c(C)c3oc2=O)ccc1OC [Compound 73] |  |  |  |  |  |  | IC50 ([1]; Table 5, read-out: Anti-Proliferation Activities Non-Noviosylated Biaryl Dimers, MCF-7): > 100 µM; fold less active than the corresponding noviosylated coumarin-containing analogs (Compounds 65-70) [8]: ~10 fold; IC50 ([4]; Table 5, read-out: Anti-Proliferation Activities Non-Noviosylated Biaryl Dimers, SKBr3): 11.8 ± 0.8 µM
